{
  "source": "patent US4782057A",
  "about": "“Benzo[h]cinnoline compound, a method of preparing said compound and a pharmaceutical composition” (Yoshitomi Pharmaceutical Industries, Ltd., priority 1984, dated 1988)",
  "data": [
    {"system": "mice", "assay": "Acute toxicity in mice", "assay_type": "in vivo", "conditions": "intraperitoneal dose of 250 mg/kg", "excerpt": "(§1) The compound of Example 13 was orally or intraperitoneally administered to mice.", "values": [
      {"smiles": "COc1ccc(N2N=C3c4cc(C)ccc4CCC3CC2=O)cc1", "note": "(stereo not shown) [Example 13, 2-(4-Methoxyphenyl)-9-methyl-4,4a,5,6-tetrahydrobenzo[h]cinnolin-3(2H)-one]", "survival, acute toxicity": "All mice survived"}
    ]},
    {"system": "mice", "assay": "Acute toxicity in mice", "assay_type": "in vivo", "conditions": "oral dose of 1000 mg/kg", "excerpt": "as §1", "values": [
      {"smiles": "COc1ccc(N2N=C3c4cc(C)ccc4CCC3CC2=O)cc1", "note": "(stereo not shown) [Example 13, 2-(4-Methoxyphenyl)-9-methyl-4,4a,5,6-tetrahydrobenzo[h]cinnolin-3(2H)-one]", "survival, acute toxicity": "All mice survived"}
    ]},
    {"target": "benzodiazepine receptor", "assay": "Displacement of tritiated diazepam from benzodiazepine receptor (crude synaptosomal membranes of rat cerebral cortex)", "assay_type": "binding, male Wistar rats", "conditions": "tritiated diazepam 2 nM, 4° C., 20 minutes, Tris-HCl pH 7.4", "experimental": "A displacement ability for benzodiazepine receptor is shown as follows:\nA specific binding for benzodiazepine receptor was determined according to the methods described in European Journal of Pharmacology, vol. 51, p. 129 (1978) and Life Science, vol. 20, p. 1201 (1977).\nIn brief, the crude synaptosomal membranes were prepared from the cerebral cortex of 9 to 10 week-old male Wistar rats and were suspended in Tris-HCl buffer (pH 7.4). Various concentrations of test compounds and tritiated diazepam (final concentration: 2 nM) were incubated at 4° C. for 20 minutes. Then the suspension was filtered through Whatman GF/B glass fiber filters. Radioactivity of tritiated diazepam on the filters was measured by liquid scintillation spectrometry. Specific binding was defined as the difference in the amount of radioactivity bound in the absence and presence of 1.0×10^-6 M unlabeled diazepam.\nAccording to the above experimental method, the affinity of the compounds of the present invention is evaluated as an ability to displace tritiated diazepam from the binding site, and is represented as Ki value.", "units": {"Ki": "µM"}, "values": [
      {"smiles": "O=C1CC2CCc3ccc(Cl)cc3C2=NN1c1ccccc1", "note": "(stereo not shown) [Example 1, 9-chloro-2-phenyl-4,4a,5,6-tetrahydrobenzo[h]cinnolin-3(2H)-one]", "Ki": 0.12},
      {"smiles": "O=c1cc2c(nn1-c1ccccc1)-c1cc(Cl)ccc1CC2", "note": "[Example 2, 9-chloro-2-phenyl-5,6-dihydrobenzo[h]cinnolin-3(2H)-one]", "Ki": 0.19},
      {"smiles": "O=c1cc2c(nn1-c1ccccc1)-c1ccccc1CC2", "note": "[Example 3, 2-phenyl-5,6-dihydrobenzo[h]cinnolin-3(2H)-one]", "Ki": 0.13},
      {"smiles": "Cc1ccc(N2N=C3c4cc(C)ccc4CCC3CC2=O)cc1", "note": "(stereo not shown) [Example 11, 9-Methyl-2-(4-methylphenyl)-4,4a,5,6-tetrahydrobenzo[h]cinnolin-3(2H)-one]", "Ki": 0.016},
      {"smiles": "Cc1ccc2c(c1)C1=NN(c3ccc(Cl)cc3)C(=O)CC1CC2", "note": "(stereo not shown) [Example 12, 2-(4-Chlorophenyl)-9-methyl-4,4a,5,6-tetrahydrobenzo[h]cinnolin-3(2H)-one]", "Ki": 0.026},
      {"smiles": "COc1ccc(N2N=C3c4cc(C)ccc4CCC3CC2=O)cc1", "note": "(stereo not shown) [Example 13, 2-(4-Methoxyphenyl)-9-methyl-4,4a,5,6-tetrahydrobenzo[h]cinnolin-3(2H)-one]", "Ki": 0.0066},
      {"smiles": "COc1ccc2c(c1)C1=NN(c3ccc(C)cc3)C(=O)CC1CC2", "note": "(stereo not shown) [Example 14, 9-Methoxy-2-(4-methylphenyl)-4,4a,5,6-tetrahydrobenzo[h]cinnolin-3(2H)-one]", "Ki": 0.0082},
      {"smiles": "Cc1ccc(-n2nc3c(cc2=O)CCc2ccc(Cl)cc2-3)cc1", "note": "[Example 15, 9-Chloro-2-(4-methylphenyl)-5,6-dihydrobenzo[h]cinnolin-3(2H)-one]", "Ki": 0.028},
      {"smiles": "Cc1ccc(N2N=C3c4cc(Cl)ccc4CCC3CC2=O)cc1", "note": "(stereo not shown) [Example 16, 9-Chloro-2-(4-methylphenyl)-4,4a,5,6-tetrahydrobenzo[h]cinnolin-3(2H)-one]", "Ki": 0.014},
      {"smiles": "O=c1cc2c(nn1-c1ccc(Cl)cc1)-c1cc(Cl)ccc1CC2", "note": "[Example 17, 9-Chloro-2-(4-chlorophenyl)-5,6-dihydrobenzo[h]cinnolin-3(2H)-one]", "Ki": 0.047},
      {"smiles": "O=c1cc2c(nn1-c1ccc([N+](=O)[O-])cc1)-c1cc(Cl)ccc1CC2", "note": "[Example 18, 9-Chloro-2-(4-nitrophenyl)-5,6-dihydrobenzo[h]cinnolin-3(2H)-one]", "Ki": 0.09},
      {"smiles": "O=c1cc2c(nn1-c1ccc(Cl)cc1)-c1cc(F)ccc1CC2", "note": "[Example 19, 2-(4-Chlorophenyl)-9-fluoro-5,6-dihydrobenzo[h]cinnolin-3(2H)-one]", "Ki": 0.045},
      {"smiles": "O=C1CC2CCc3ccc(F)cc3C2=NN1c1ccc(Cl)cc1", "note": "(stereo not shown) [Example 20, 2-(4-Chlorophenyl)-9-fluoro-4,4a,5,6-tetrahydrobenzo[h]cinnolin-3(2H)-one]", "Ki": 0.034},
      {"smiles": "O=c1cc2c(nn1-c1ccccc1)-c1cc(F)ccc1CC2", "note": "[Example 30, 9-Fluoro-2-phenyl-5,6-dihydrobenzo[h]cinnolin-3(2H)-one]", "Ki": 0.22}
    ]}
  ]
}
